Reference: patent US20120252729A1, “PTH-CONTAINING THERAPEUTIC/PROPHYLACTIC AGENT FOR OSTEOPOROSIS, CHARACTERIZED IN THAT PTH IS ADMINISTERED ONCE A WEEK IN A UNIT DOSE OF 100 TO 200 UNITS” (ASAHI KASEI PHARMA CORPORATION, priority 2009, published 2012)

Legend:
[1] = tested on: high-risk patients diagnosed with primary osteoporosis; assay: Working Example 2: worsening vertebral fractures; format: in vivo, human; details: 200 units weekly, FAS
Excerpt: The vertebral fractures in the present invention also include both new fractures and worsening fractures. […] New and worsening [fractures] can be classified by the grade increase pattern according to the criteria of Genant. Concretely speaking, a fracture is diagnosed as a new fracture when a change is found from grade 0 to grade 1, 2, or 3. It can be regarded as a worsening fracture when a change is found from grade 1 to grade 2 or 3 or from grade 2 to grade 3. The vertebral height was measured according to the method of Inoue et al. (Non-patent reference 35) and the method of Hayashi et al. (Non-patent Reference 36) to accurately assess the changes in grade.
The incidence of bone fractures was checked by frontal and lateral x-rays of the fourth thoracic to the fourth lumbar spine taken at the start and every 24 weeks thereafter.
The efficacy of the test drug on worsening bone fractures was studied.

[2] = tested on: high-risk patients diagnosed with primary osteoporosis; assay: Working Example 2: CT geometry of the proximal femur (neck, trochanter, shaft); format: in vivo, human; details: 200 units weekly
Method: For the CT geometry, the proximal part of the femur was measured at the start and after 48 and 72 weeks using multislice CT scan.
The effects of the test drug on three parts of the femur (neck of the femur, trochanter, and shaft of the femur) were studied using ordinary CT scans.

[3] = in vivo
Method: The Lumbar spine bone mineral density and occurrence of bone fractures were checked as bone assessments. For the Lumbar spine bone mineral density, the bone density of the second to fourth lumbar spine was measured at the start and every six months thereafter using dual-energy x-ray absorptiometry (DXA). For the frequency of bone fractures, x-rays were taken from the front and side of the fourth thoracic to the fifth lumbar spine at the start and every six months thereafter, and new vertebral fractures were assessed by comparison of the roentgen films at the start and at each point in time thereafter using the method of Genant et al. (Non-patent Reference 14) as a reference. In locations other than the vertebrae, fractures were evaluated by checking by roentgen films. Blood samples were also taken from all patients at the beginning and during administration, and the general laboratory test values, including the calcium concentration, were measured. The administration period in high-risk patients (DXA and new vertebral fractures were assessed collectively at the center; fractures of other than vertebrae were assessed by the investigator based on the roentgen films) was 85.1±20.8 weeks in the 5 unit group and 83.7±19.8 weeks in the 100 unit group. […] The administration period in low-risk patients was 72.7±19.4 weeks in the 5 unit group and 88.3±21.3 weeks in the 100 unit group.

[4] = tested on: patients diagnosed with primary osteoporosis; assay: Working Example 1: new vertebral fractures by x-ray (method of Genant et al.); format: in vivo, human
Method: Both the 5 and 100 unit groups were administered two tablets of a calcium agent (containing 500 mg of precipitated calcium carbonate [200 mg as calcium] per tablet) once a day.
The osteoporosis patients were classified as condition shown in Table 1 based on the bone fracture risk factors present, as in Non-patent Reference 13, and compared. High-risk patients were defined as having all three factors involving age, prevalent vertebral fractures, and bone density or bone atrophy; low-risk patients were defined as other than the above.

[5] = in vivo; remark: listed apart in the source
Method: The ratio of the urinary calcium value/urinary creatine value was compared before beginning administration and in the weeks of observation. The urinary calcium was measured at the start, after 12 weeks, after 24 weeks, after 48 weeks, and after 72 weeks.

[6] = tested on: osteoporosis patients having normal renal function, mild or moderate renal dysfunction; details: in vivo
[7] = tested on: osteoporosis patients having normal renal function, mild or moderate renal dysfunction; details: in vivo; remark: listed apart in the source
Excerpt: The incidence of adverse events was studied after administering the test drug to the a group of osteoporosis patients having normal renal function, a group of osteoporosis patients having mild renal dysfunction, and a group of osteoporosis patients having moderate renal dysfunction.

[8] = high-risk patients, 5 units, after 26 W
[9] = high-risk patients, 5 units, after 52 W
[10] = high-risk patients, 5 units, after 78 W
[11] = high-risk patients, 5 units, after 104 W
[12] = high-risk patients, 5 units, after 130 W
[13] = high-risk patients, 100 units, after 26 W
[14] = high-risk patients, 100 units, after 52 W
[15] = high-risk patients, 100 units, after 78 W
[16] = high-risk patients, 100 units, after 104 W
[17] = high-risk patients, 100 units, after 130 W
[18] = low-risk patients, 5 units, after 26 W
[19] = low-risk patients, 5 units, after 52 W
[20] = low-risk patients, 5 units, after 78 W
[21] = low-risk patients, 5 units, after 104 W
[22] = low-risk patients, 5 units, after 130 W
[23] = low-risk patients, 100 units, after 26 W
[24] = low-risk patients, 100 units, after 52 W
[25] = low-risk patients, 100 units, after 78 W
[26] = low-risk patients, 100 units, after 104 W
[27] = low-risk patients, 100 units, after 130 W

In the case of teriparatide acetate, the “Difference between test drug group and control group after 72 W (%), incidence of worsening fractures” value [1] was 1.8%, the “Worsening fractures: No. with fractures” value [1] was 1 and the “Incidence of worsening fractures (%)” value ([1]; after 24 W) was 0.4%. The “Incidence of worsening fractures (%)” value ([1]; after 48 W) was 0.4%, the “Incidence of worsening fractures (%)” value ([1]; after 72 W) was 0.4% and the “Maximum section modulus (SM (Z min)), change from baseline after 48 weeks (%)” value ([2]; neck of femur) was 3.43%. The “Maximum section modulus (SM (Z min)), change from baseline after 72 weeks (%)” value ([2]; neck of femur) was 1.87%, the “Volume bone mineral density (cortical bone) [vBMD cortical], change from baseline after 48 weeks (%)” value ([2]; neck of femur) was −0.77% and the “Volume bone mineral density (cortical bone) [vBMD cortical], change from baseline after 72 weeks (%)” value ([2]; neck of femur) was −1.14%. For the same substance, the “Volume bone mineral density (total) [vBMD total], change from baseline after 48 weeks (%)” value ([2]; neck of femur) was 0.92%, the “Volume bone mineral density (total) [vBMD total], change from baseline after 72 weeks (%)” value ([2]; neck of femur) was 0.15% and the “Maximum section modulus (SM (Z min)), change from baseline after 48 weeks (%)” value ([2]; shaft of femur) was 1.28%. For the same substance, the “Maximum section modulus (SM (Z min)), change from baseline after 72 weeks (%)” value ([2]; shaft of femur) was 2.69%, the “Volume bone mineral density (cortical bone) [vBMD cortical], change from baseline after 48 weeks (%)” value ([2]; shaft of femur) was 0.59% and the “Volume bone mineral density (cortical bone) [vBMD cortical], change from baseline after 72 weeks (%)” value ([2]; shaft of femur) was 0.18%. For the same substance, the “Volume bone mineral density (total) [vBMD total], change from baseline after 48 weeks (%)” value ([2]; shaft of femur) was 1.03%, the “Volume bone mineral density (total) [vBMD total], change from baseline after 72 weeks (%)” value ([2]; shaft of femur) was 1.25% and the “Maximum section modulus (SM (Z min)), change from baseline after 48 weeks (%)” value ([2]; trochanter) was 5.19%. The “Maximum section modulus (SM (Z min)), change from baseline after 72 weeks (%)” value ([2]; trochanter) was 3.20%, the “Volume bone mineral density (cortical bone) [vBMD cortical], change from baseline after 48 weeks (%)” value ([2]; trochanter) was −0.49% and the “Volume bone mineral density (cortical bone) [vBMD cortical], change from baseline after 72 weeks (%)” value ([2]; trochanter) was −1.49%. The “Volume bone mineral density (total) [vBMD total], change from baseline after 48 weeks (%)” value ([2]; trochanter) was 1.36%, the “Volume bone mineral density (total) [vBMD total], change from baseline after 72 weeks (%)” value ([2]; trochanter) was 0.95% and the “Hypercalcemia during the administration period” value [3] was “did not cause hypercalcemia at either dose”. For the same substance, the “New vertebral fractures every 26 weeks: Incidence (%)” value [4, 8] was 9.5%, the “New vertebral fractures every 26 weeks: No. of fractures” value [4, 8] was 8 and the “New vertebral fractures every 26 weeks: No. with fractures” value [4, 8] was 6. The “New vertebral fractures every 26 weeks: Incidence (%)” value [4, 9] was 11.1%, the “New vertebral fractures every 26 weeks: No. of fractures” value [4, 9] was 9 and the “New vertebral fractures every 26 weeks: No. with fractures” value [4, 9] was 7. For the same substance, the “New vertebral fractures every 26 weeks: Incidence (%)” value [4, 10] was 7.0%, the “New vertebral fractures every 26 weeks: No. of fractures” value [4, 10] was 4 and the “New vertebral fractures every 26 weeks: No. with fractures” value [4, 10] was 4. The “New vertebral fractures every 26 weeks: Incidence (%)” value [4, 11] was 2.9%, the “New vertebral fractures every 26 weeks: No. of fractures” value [4, 11] was 1 and the “New vertebral fractures every 26 weeks: No. with fractures” value [4, 11] was 1. For the same substance, the “New vertebral fractures every 26 weeks: No. of fractures” value [4, 12] was 0, the “New vertebral fractures every 26 weeks: No. with fractures” value [4, 12] was 0 and the “New vertebral fractures every 26 weeks: Incidence (%)” value [4, 13] was 2.0%. The “New vertebral fractures every 26 weeks: No. of fractures” value [4, 13] was 1, the “New vertebral fractures every 26 weeks: No. with fractures” value [4, 13] was 1 and the “New vertebral fractures every 26 weeks: Incidence (%)” value [4, 14] was 2.0%. For the same substance, the “New vertebral fractures every 26 weeks: No. of fractures” value [4, 14] was 1, the “New vertebral fractures every 26 weeks: No. with fractures” value [4, 14] was 1 and the “New vertebral fractures every 26 weeks: Incidence (%)” value [4, 15] was 2.2%. The “New vertebral fractures every 26 weeks: No. of fractures” value [4, 15] was 1, the “New vertebral fractures every 26 weeks: No. with fractures” value [4, 15] was 1 and the “New vertebral fractures every 26 weeks: No. of fractures” value [4, 16] was 0. For the same substance, the “New vertebral fractures every 26 weeks: No. with fractures” value [4, 16] was 0, the “New vertebral fractures every 26 weeks: No. of fractures” value [4, 17] was 0 and the “New vertebral fractures every 26 weeks: No. with fractures” value [4, 17] was 0. For the same substance, the “New vertebral fractures every 26 weeks: No. of fractures” value [4, 18] was 0, the “New vertebral fractures every 26 weeks: No. with fractures” value [4, 18] was 0 and the “New vertebral fractures every 26 weeks: Incidence (%)” value [4, 19] was 4.8%. For the same substance, the “New vertebral fractures every 26 weeks: No. of fractures” value [4, 19] was 1, the “New vertebral fractures every 26 weeks: No. with fractures” value [4, 19] was 1 and the “New vertebral fractures every 26 weeks: No. of fractures” value [4, 20] was 0. For the same substance, the “New vertebral fractures every 26 weeks: No. with fractures” value [4, 20] was 0, the “New vertebral fractures every 26 weeks: No. of fractures” value [4, 21] was 0 and the “New vertebral fractures every 26 weeks: No. with fractures” value [4, 21] was 0. The “New vertebral fractures every 26 weeks: No. of fractures” value [4, 22] was 0, the “New vertebral fractures every 26 weeks: No. with fractures” value [4, 22] was 0 and the “New vertebral fractures every 26 weeks: Incidence (%)” value [4, 23] was 8.3%. For the same substance, the “New vertebral fractures every 26 weeks: No. of fractures” value [4, 23] was 2, the “New vertebral fractures every 26 weeks: No. with fractures” value [4, 23] was 1 and the “New vertebral fractures every 26 weeks: No. of fractures” value [4, 24] was 0. For the same substance, the “New vertebral fractures every 26 weeks: No. with fractures” value [4, 24] was 0, the “New vertebral fractures every 26 weeks: No. of fractures” value [4, 25] was 0 and the “New vertebral fractures every 26 weeks: No. with fractures” value [4, 25] was 0. For the same substance, the “New vertebral fractures every 26 weeks: No. of fractures” value [4, 26] was 0, the “New vertebral fractures every 26 weeks: No. with fractures” value [4, 26] was 0 and the “New vertebral fractures every 26 weeks: No. of fractures” value [4, 27] was 0. The “New vertebral fractures every 26 weeks: No. with fractures” value [4, 27] was 0, the “Average percentage change in the urinary calcium value” [5] was 3.2% and the “Median percentage change in the urinary calcium value” [5] was −14.7%. The “Side effects Yes (%)” value [6] was 36.8%, the “Side effects, point estimate of the difference” value [6] was 29.1 and the “Side effects: No (%)” value [6] was 55.1%. For the same substance, the “Side effects: No, No. of cases” value [6] was 27, the “Side effects: Yes (%)” value [6] was 44.9% and the “Side effects: Yes, No. of cases” value [6] was 22. The “Adverse events: point estimate of the difference (PTH200 group vs P group)” value [7] was 2.0.
